Measurements as given in the supplement of paper PMC10307832.

Experiments:
Assay in all cases: relative viability (nuclei count vs DMSO), 5 days (fraction); higher = more cells survive
Imatinib + Phenformin = compound: Cc1ccc(NC(=O)c2ccc(CN3CCN(C)CC3)cc2)cc1Nc1nccc(-c2cccnc2)n1 [Imatinib] + N=C(N)NC(=N)NCCc1ccccc1 [Phenformin] (partner 250 µM)
How it was run: (§1)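 Cells from lung cancer lines were seeded into 1536-well plates and, one day later, dosed by pin tool. Treatments were either a single drug or a fixed dose of an anchor drug with five library-drug doses (not always all listed) in √10 steps. After 5 days, nuclei were stained in a one-step fixation (final 0.05% Triton X-100, 1% formaldehyde, 1 ug/ml Hoechst) and counted on 4× images, and relative viability is the treated-to-vehicle nuclei ratio, as the median of duplicate plates.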

Imatinib + Linsitinib = compound: Cc1ccc(NC(=O)c2ccc(CN3CCN(C)CC3)cc2)cc1Nc1nccc(-c2cccnc2)n1 [Imatinib] + C[C@]1(O)C[C@@H](c2nc(-c3ccc4ccc(-c5ccccc5)nc4c3)c3c(N)nccn32)C1 [Linsitinib] (partner 1 µM)
How it was run: as §1

Imatinib + Crizotinib = compound: Cc1ccc(NC(=O)c2ccc(CN3CCN(C)CC3)cc2)cc1Nc1nccc(-c2cccnc2)n1 [Imatinib] + C[C@@H](Oc1cc(-c2cnn(C3CCNCC3)c2)cnc1N)c1c(Cl)ccc(F)c1Cl [Crizotinib] (partner 1 µM)
How it was run: as §1

Imatinib + Pemetrexed = compound: Cc1ccc(NC(=O)c2ccc(CN3CCN(C)CC3)cc2)cc1Nc1nccc(-c2cccnc2)n1 [Imatinib] + Nc1nc2[nH]cc(CCc3ccc(C(=O)N[C@@H](CCC(=O)O)C(=O)O)cc3)c2c(=O)[nH]1 [Pemetrexed] (partner 0.2 µM)
How it was run: as §1

Row | Cell Line | relative viability (Imatinib + Phenformin; first compound 0.02 µM) | relative viability (Imatinib + Phenformin; first compound 0.06325 µM) | relative viability (Imatinib + Phenformin; first compound 0.2 µM) | relative viability (Imatinib + Phenformin; first compound 0.6325 µM) | relative viability (Imatinib + Phenformin; first compound 2 µM) | relative viability (Imatinib + Linsitinib; first compound 0.02 µM) | relative viability (Imatinib + Linsitinib; first compound 0.06325 µM) | relative viability (Imatinib + Linsitinib; first compound 0.2 µM) | relative viability (Imatinib + Linsitinib; first compound 0.6325 µM) | relative viability (Imatinib + Linsitinib; first compound 2 µM) | relative viability (Imatinib + Crizotinib; first compound 0.02 µM) | relative viability (Imatinib + Crizotinib; first compound 0.06325 µM) | relative viability (Imatinib + Crizotinib; first compound 0.2 µM) | relative viability (Imatinib + Crizotinib; first compound 0.6325 µM) | relative viability (Imatinib + Crizotinib; first compound 2 µM) | relative viability (Imatinib + Pemetrexed; first compound 0.02 µM) | relative viability (Imatinib + Pemetrexed; first compound 0.2 µM) | relative viability (Imatinib + Pemetrexed; first compound 0.6325 µM) | relative viability (Imatinib + Pemetrexed; first compound 2 µM) | relative viability (Imatinib + Pemetrexed; first compound 0.06325 µM)
1 | NCI-H650 | 0.505 | 0.435 | 0.516 | 0.494 | 0.425 | 1.27 | 0.86 | 0.95 | 1.05 | 0.861 | 0.708 | 0.913 | 0.916 | 0.656 | 0.812 | 0.986 | 0.834 | 0.951 | 0.875 | 
2 | NCI-H2009 | 0.518 |  | 0.485 | 0.445 | 0.383 | 1.19 | 1.32 | 1.21 | 1.24 | 1.24 | 1.09 | 1.23 | 0.975 | 1.02 | 1.04 | 1.11 | 1.05 | 0.984 | 0.993 | 1.17
3 | EKVX |  | 0.249 | 0.22 | 0.226 | 0.242 | 1.09 |  | 0.968 | 1.02 | 1.12 | 0.937 | 0.861 | 1.08 | 0.886 |  | 0.442 | 0.509 | 0.391 |  | 
4 | NCI-H596 | 0.73 | 0.663 | 0.816 | 0.693 | 0.834 | 1.09 | 0.958 | 1.1 |  | 0.969 |  | 0.991 | 1.06 | 0.928 | 0.975 | 0.497 | 0.509 | 0.466 | 0.487 | 0.507
5 | NCI-H3122 | 0.394 | 0.38 | 0.366 |  | 0.357 | 1 | 1.13 | 1.14 | 1.03 | 1.04 | 0.253 | 0.292 | 0.324 | 0.313 | 0.255 | 0.202 | 0.198 | 0.185 | 0.2 | 0.211
6 | NCI-H2085 | 0.867 | 0.694 | 0.748 | 0.752 | 0.704 | 0.93 | 0.823 | 1.11 | 0.95 | 0.825 | 0.826 | 0.891 | 0.903 | 0.839 | 0.841 | 0.837 | 0.917 |  | 0.834 | 0.892
7 | NCI-H441 | 0.755 | 0.747 | 1.02 | 0.958 | 0.879 | 0.644 | 0.485 | 0.573 | 0.47 | 0.546 | 0.659 | 0.796 | 0.796 | 0.879 | 0.737 | 0.278 | 0.27 | 0.265 | 0.24 | 0.262
8 | NCI-H1395 | 0.472 | 0.4 | 0.438 | 0.471 | 0.447 | 0.978 |  | 1.04 | 1.02 | 0.975 |  |  |  |  |  | 0.807 | 0.955 | 1.04 | 0.784 | 
9 | NCI-H1944 | 0.185 | 0.2 | 0.188 | 0.199 | 0.162 | 1.21 |  | 1.12 | 1.07 | 1.18 | 1.24 |  |  | 0.935 |  | 0.881 | 0.695 | 0.656 | 0.561 | 0.642
10 | NCI-H1793 | 0.388 |  | 0.375 | 0.284 | 0.257 | 1.09 |  | 1.06 | 0.96 |  |  |  |  |  |  | 0.945 | 1 | 1.01 | 0.792 | 
11 | SK-MES-1 | 0.72 | 0.686 | 0.725 | 0.619 | 0.577 | 1.07 | 1.19 | 1.23 | 1.06 | 1.19 | 1.08 | 0.999 | 1.16 | 1.05 | 0.971 |  | 1.04 | 0.889 | 0.857 | 1.02
12 | NCI-H1651 | 0.338 | 0.35 | 0.329 | 0.339 | 0.374 | 1.09 | 1.14 | 1.21 | 0.946 | 1.11 | 0.916 | 0.775 |  | 0.855 | 0.891 | 0.617 | 0.586 | 0.58 | 0.555 | 0.339
13 | LCLC-97TM1 | 0.409 |  | 0.458 | 0.498 | 0.437 |  |  | 0.204 | 0.179 | 0.184 |  |  | 0.358 | 0.34 | 0.407 | 0.183 | 0.197 | 0.165 | 0.184 | 
14 | LXF-289 | 0.531 | 0.491 | 0.552 | 0.51 | 0.502 | 1.03 | 1.05 | 1.08 | 0.892 | 0.935 | 0.881 | 0.826 | 0.876 | 0.814 | 0.777 | 0.91 | 0.88 | 0.893 | 0.923 | 
15 | 201T | 0.433 |  | 0.469 | 0.435 | 0.437 | 1.03 |  | 1.03 | 1.03 | 0.957 |  |  | 1.09 | 0.993 | 1.02 | 0.317 | 0.391 | 0.284 | 0.31 | 0.24
